In patent US6603023B2 (priority 1996, dated 2003):
pIC50: −log10 of the molar value. “And” between values parts separate entries of the source, which are not always exact repeats. Equal values may be shown once. “Also recorded” adds a separate entry of the source. Read-outs that look alike come from different tables or passages of the source. Marks after values point to notes of the source that are not given here.

Key:
[1] = test system: human mammary carcinoma MX-1 xenograft; parameters: Toxicity toward Nude Mice: key to the marks not given beside the values; details: for Toxicity toward Nude Mice: based on body weight decrease or lethality; for Therapeutic Effect against MX-1 Xenograft: based on tumor volume reduction vs untreated control
Method: DMSO was used as a vehicle for epothilones. Each mouse received ≦40 μL DMSO in all experiments.
Athymic nude mice (nu/nu) were used for MX-1 and MCF-7/Adr human mammary carcinoma xenografts. Mice were obtained from Taconic Laboratory Animals and Service (Germantown, N.Y.: outbred, Swiss background).

DC-3F/ADX = assay: cells; format: cell-based, hamster
In short: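 Cell protein content measured by sulforhodamine B staining after trichloroacetic acid fixation, read at 570 nm; duplicate runs of six to seven concentrations fitted by median-effect analysis. Lines are actinomycin D-resistant DC-3F hamster lung sublines (ADII, ADX), kept under selecting drug in RPMI 1640-10% FBS.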

MCF-7 = assay: SRB cytotoxicity, MCF-7; format: cell-based, human; details: Table 1C; SRB, 72 h; read-out: IC50
In short: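 Monolayer MCF-7 cultures exposed to six to seven drug concentrations in duplicate, then fixed with trichloroacetic acid and stained 30 min with 0.4% sulforhodamine B. Bound dye extracted with unbuffered Tris base, absorbance read at 570 nm; values derived by median-effect plot analysis.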

B16 Melanoma = format: in vivo, B6D2F1 mice
Method: Body weight was determined at 0, 2, 4, 6, 8, 10 and 12 days. […] Injections were started on day 1. […] Body weight was determined at 0, 2, 4, 6, 8, 10 and 12 days. […] Injections were started on day 1.

[2] = 35 mg/kg i.p. d8,10,12,14,16, day 14
[3] = 35 mg/kg i.p. d8,10,12,14,16, day 16
[4] = 35 mg/kg i.p. d8,10,12,14,16, day 18
[5] = 40 mg/kg i.p. d18-26, extended after d8-16, day 20
[6] = 40 mg/kg i.p. d18-26, extended after d8-16, day 22
[7] = 40 mg/kg i.p. d18-26, extended after d8-16, day 24
[8] = 40 mg/kg i.p. d18-26, extended after d8-16, day 26
[9] = 40 mg/kg i.p. d18-26, extended after d8-16, day 28
[10] = dEpo B 15 mg/kg i.v. Q2Dx5 from day 9
[11] = dEpo B 15 mg/kg i.v. Q2Dx5 from day 9, day 13
[12] = dEpo B 15 mg/kg i.v. Q2Dx5 from day 9, day 15
[13] = dEpo B 15 mg/kg i.v. Q2Dx5 from day 9, day 17
[14] = dEpo B 15 mg/kg i.v. Q2Dx5 from day 9, day 19
[15] = i.p., Cremophor-EtOH, 15 mg/kg Q2D x 5 (dose of dEpoB)
[16] = i.p., DMSO, 35 mg/kg Q2D x 5 (dose of dEpoB)
[17] = i.v. infusion 6 hr, Cremophor-EtOH, 30 mg/kg Q2D x 5 (dose of dEpoB)
[18] = i.v. infusion 24 hr, Cremophor-EtOH, 60 mg/kg Q4D x 2 (dose of dEpoB)
[19] = i.v. injection, DMSO, 15 mg/kg Q2D x 5 (dose of dEpoB)
[20] = i.v. injection, DMSO, 24 mg/kg Q2D x 5 (dose of dEpoB)

C/C1=C/C[C@@H](/C(C)=C/c2csc(C)n2)OC(=O)C[C@H](O)C(C)(C)C(=O)[C@H](C)[C@@H](O)[C@@H](C)CCC1 [Desoxyepothilone B, desoxyepothilone B]
Average Body Weight Change [1, 2]: -0.3 g | Average Tumor Volume (T/C) [1, 2]: 0.07 | Average Body Weight Change [1, 3]: -1.7 g | Average Tumor Volume (T/C) [1, 3]: 0.04 | Average Body Weight Change [1, 4]: -1.6 g | Average Tumor Volume (T/C) [1, 4]: 0.02 | # Died ([1]; 40 mg/kg i.p. d18-26, extended after d8-16): 0/10 | Average Tumor Disappearance Duration (Day) ([1]; 40 mg/kg i.p. d18-26, extended after d8-16, (5/10)): 44(5/10) Day | Average Body Weight Change [1, 5]: -1.7 g | Tumor Disappearance [1, 5]: 2/10^b | Average Body Weight Change [1, 6]: -2.4 g | Tumor Disappearance [1, 6]: 2/10 | Average Body Weight Change [1, 7]: -2.4 g | Tumor Disappearance [1, 7]: 3/10 | Average Body Weight Change [1, 8]: -1.4 g | Tumor Disappearance [1, 8]: 5/10 | Average Body Weight Change [1, 9]: -1.2 g | Tumor Disappearance [1, 9]: 5/10 | lethality and body weight ([1]; 15 and 25 mg/kg i.p. days 7-15): no lethality nor body weight reduction | therapeutic outcome ([1]; 25-40 mg/kg, Q2Dx5, i.p.): marked tumor regression and cures | therapeutic outcome ([1]; 6 hr i.v. infusion): full cure | Toxicity Death [1, 10]: 4/6^b | Tumor Disapp. [1, 10]: 0/6 | Average Body Weight Change [1, 11]: 0 g | Average Tumor Size (T/C) [1, 11]: 0.47 | Average Body Weight Change [1, 12]: -0.6 g | Average Tumor Size (T/C) [1, 12]: 0.30 | Average Body Weight Change [1, 13]: -1.1 g | Average Tumor Size (T/C) [1, 13]: 0.10 | Average Body Weight Change [1, 14]: -2.6 g | Average Tumor Size (T/C) [1, 14]: 0.04 | tumor size treated/control ([1]; dEpoB 35 mg/kg i.p. Q2Dx5, day 19): 0.02 | mice with tumor disappearing on day 28 (or day 31) ([1]; extended 40 mg/kg i.p. every other day from day 18, 5 more doses): 5 out of 10 | Average Tumor Disappearance Duration ([1]; extended experiment, Desoxyepo B 40 mg/kg i.p., in 5/10 mice): 44 (5/10) Day | Toxicity toward Nude Mice [1, 15]: +++++ | Therapeutic Effect against MX-1 Xenograft [1, 15]: + | Toxicity toward Nude Mice [1, 16]: ++ | Therapeutic Effect against MX-1 Xenograft [1, 16]: +++++ | Toxicity toward Nude Mice [1, 17]: ++ | Therapeutic Effect against MX-1 Xenograft [1, 17]: +++++ | Toxicity toward Nude Mice [1, 18]: +++ | Therapeutic Effect against MX-1 Xenograft [1, 18]: +++++ | Toxicity toward Nude Mice [1, 19]: +++ | Therapeutic Effect against MX-1 Xenograft [1, 19]: ++ | Toxicity toward Nude Mice [1, 20]: +++ | Therapeutic Effect against MX-1 Xenograft [1, 20]: ++ | # Died of toxicity ([1]; mouse, in vivo): 0/10 | Average Body Weight (change), Day 14 ([1]; mouse, in vivo): -2.7 g | Average Body Weight (change), Day 16 ([1]; mouse, in vivo): -4.0 g | Average Body Weight (change), Day 18 ([1]; mouse, in vivo): -4.5 g | Average Body Weight (change), Day 20 ([1]; mouse, in vivo): -6.8 g | Average Body Weight Change, Day 20 ([1]; mouse, in vivo): -1.7 g | Average Body Weight Change, Day 22 ([1]; mouse, in vivo): -2.4 g | Average Body Weight Change, Day 24 ([1]; mouse, in vivo): -2.4 g | Average Body Weight Change, Day 26 ([1]; mouse, in vivo): -1.4 g | Average Body Weight Change, Day 28 ([1]; mouse, in vivo): -1.2 g | Average Tumor Size (T/C), Day 14 ([1]; mouse, in vivo): 0.19 T/C | Average Tumor Size (T/C), Day 16 ([1]; mouse, in vivo): 0.10 T/C | Average Tumor Size (T/C), Day 18 ([1]; mouse, in vivo): 0.03 T/C | Died ([1]; mouse, in vivo): 0/10 | Lowest Average Tumor Size (T/C) ([1]; mouse, in vivo): 0 T/C | Therapeutic Effects dEpoB vs Taxol ([1]; mouse, in vivo): ≅ | Tumor Disappearance ([1]; mouse, in vivo): 3/3 and 5/5 | Tumor Disappearance, Day 20 ([1]; mouse, in vivo): 2.10^b | Tumor Disappearance, Day 22 ([1]; mouse, in vivo): 2/10 | Tumor Disappearance, Day 24 ([1]; mouse, in vivo): 3/10 | Tumor Disappearance, Day 26 ([1]; mouse, in vivo): 5/10 | Tumor Disappearance, Day 28 ([1]; mouse, in vivo): 5/10 | Therapeutic effect Rank Order ([1]; mouse, in vivo, ip): dEpoB > Camptothecin >; also recorded: dEpoB > Adriamycin > Taxol ® | Therapeutic effect Rank Order ([1]; mouse, in vivo, iv): Taxol ® ≈ dEpoB | Tumor Size, individual mice, Day 60 ([1]; surviving mice 4, 5, 9, 35 mg/kg on day 8-16, 40 mg/kg on day 18-26, then no treatment): 0 mm^3 (2×) and 4 mm^3 | fold resistance vs parent DC-3F (DC-3F/ADX; DC-3F/ADX cells): 0.9 fold | folds of resistance (IC50 ratio vs parent cell line) (DC-3F/ADX; Table 1C, DC-3F/ADX vs DC-3F): (0.9x) | pIC50 (DC-3F/ADX; Table 1C, SRB, 72 h, read-out: IC50): 9.04 | pIC50 (MCF-7): 8.54 | Average Tumor Volume (T/C) (B16 Melanoma; 20 mg/kg QD1-4,7-8, day 11): 0.33 | mice died (B16 Melanoma; 20 mg/kg QDx6 from day 1 (FIG. 44)): 0 of 8
